Calls of active or inactive are those of the source.
Columns and labels:
Bifidobacterium longum = assay: Effect on growth of Bifidobacterium longum at 0.5 to 100 uM incubated for 24 hrs under anaerobic conditions by spectrophotometry; format: organism-based
Bacteroides fragilis = assay: Effect on growth of Bacteroides fragilis at 0.5 to 100 uM incubated for 48 hrs under anaerobic conditions by spectrophotometry; format: organism-based
Toxin B [1] = molecular target: T1, Toxin B (Clostridioides difficile, UniProt P18177); assay: Inhibition of C-terminal 6-His tagged recombinant Clostridium difficile toxin B catalytic fragment (Met1 to Leu543 residues) assessed as reduction in glucosyltransferase domain UDP-glucose hydrolysis activity using UDP-glucose and ADP Alexa633 tracer incubated fore 3 hrs by fluorescence polarization assay
T1 sequence (P18177 whole entry, the tested form may be a part): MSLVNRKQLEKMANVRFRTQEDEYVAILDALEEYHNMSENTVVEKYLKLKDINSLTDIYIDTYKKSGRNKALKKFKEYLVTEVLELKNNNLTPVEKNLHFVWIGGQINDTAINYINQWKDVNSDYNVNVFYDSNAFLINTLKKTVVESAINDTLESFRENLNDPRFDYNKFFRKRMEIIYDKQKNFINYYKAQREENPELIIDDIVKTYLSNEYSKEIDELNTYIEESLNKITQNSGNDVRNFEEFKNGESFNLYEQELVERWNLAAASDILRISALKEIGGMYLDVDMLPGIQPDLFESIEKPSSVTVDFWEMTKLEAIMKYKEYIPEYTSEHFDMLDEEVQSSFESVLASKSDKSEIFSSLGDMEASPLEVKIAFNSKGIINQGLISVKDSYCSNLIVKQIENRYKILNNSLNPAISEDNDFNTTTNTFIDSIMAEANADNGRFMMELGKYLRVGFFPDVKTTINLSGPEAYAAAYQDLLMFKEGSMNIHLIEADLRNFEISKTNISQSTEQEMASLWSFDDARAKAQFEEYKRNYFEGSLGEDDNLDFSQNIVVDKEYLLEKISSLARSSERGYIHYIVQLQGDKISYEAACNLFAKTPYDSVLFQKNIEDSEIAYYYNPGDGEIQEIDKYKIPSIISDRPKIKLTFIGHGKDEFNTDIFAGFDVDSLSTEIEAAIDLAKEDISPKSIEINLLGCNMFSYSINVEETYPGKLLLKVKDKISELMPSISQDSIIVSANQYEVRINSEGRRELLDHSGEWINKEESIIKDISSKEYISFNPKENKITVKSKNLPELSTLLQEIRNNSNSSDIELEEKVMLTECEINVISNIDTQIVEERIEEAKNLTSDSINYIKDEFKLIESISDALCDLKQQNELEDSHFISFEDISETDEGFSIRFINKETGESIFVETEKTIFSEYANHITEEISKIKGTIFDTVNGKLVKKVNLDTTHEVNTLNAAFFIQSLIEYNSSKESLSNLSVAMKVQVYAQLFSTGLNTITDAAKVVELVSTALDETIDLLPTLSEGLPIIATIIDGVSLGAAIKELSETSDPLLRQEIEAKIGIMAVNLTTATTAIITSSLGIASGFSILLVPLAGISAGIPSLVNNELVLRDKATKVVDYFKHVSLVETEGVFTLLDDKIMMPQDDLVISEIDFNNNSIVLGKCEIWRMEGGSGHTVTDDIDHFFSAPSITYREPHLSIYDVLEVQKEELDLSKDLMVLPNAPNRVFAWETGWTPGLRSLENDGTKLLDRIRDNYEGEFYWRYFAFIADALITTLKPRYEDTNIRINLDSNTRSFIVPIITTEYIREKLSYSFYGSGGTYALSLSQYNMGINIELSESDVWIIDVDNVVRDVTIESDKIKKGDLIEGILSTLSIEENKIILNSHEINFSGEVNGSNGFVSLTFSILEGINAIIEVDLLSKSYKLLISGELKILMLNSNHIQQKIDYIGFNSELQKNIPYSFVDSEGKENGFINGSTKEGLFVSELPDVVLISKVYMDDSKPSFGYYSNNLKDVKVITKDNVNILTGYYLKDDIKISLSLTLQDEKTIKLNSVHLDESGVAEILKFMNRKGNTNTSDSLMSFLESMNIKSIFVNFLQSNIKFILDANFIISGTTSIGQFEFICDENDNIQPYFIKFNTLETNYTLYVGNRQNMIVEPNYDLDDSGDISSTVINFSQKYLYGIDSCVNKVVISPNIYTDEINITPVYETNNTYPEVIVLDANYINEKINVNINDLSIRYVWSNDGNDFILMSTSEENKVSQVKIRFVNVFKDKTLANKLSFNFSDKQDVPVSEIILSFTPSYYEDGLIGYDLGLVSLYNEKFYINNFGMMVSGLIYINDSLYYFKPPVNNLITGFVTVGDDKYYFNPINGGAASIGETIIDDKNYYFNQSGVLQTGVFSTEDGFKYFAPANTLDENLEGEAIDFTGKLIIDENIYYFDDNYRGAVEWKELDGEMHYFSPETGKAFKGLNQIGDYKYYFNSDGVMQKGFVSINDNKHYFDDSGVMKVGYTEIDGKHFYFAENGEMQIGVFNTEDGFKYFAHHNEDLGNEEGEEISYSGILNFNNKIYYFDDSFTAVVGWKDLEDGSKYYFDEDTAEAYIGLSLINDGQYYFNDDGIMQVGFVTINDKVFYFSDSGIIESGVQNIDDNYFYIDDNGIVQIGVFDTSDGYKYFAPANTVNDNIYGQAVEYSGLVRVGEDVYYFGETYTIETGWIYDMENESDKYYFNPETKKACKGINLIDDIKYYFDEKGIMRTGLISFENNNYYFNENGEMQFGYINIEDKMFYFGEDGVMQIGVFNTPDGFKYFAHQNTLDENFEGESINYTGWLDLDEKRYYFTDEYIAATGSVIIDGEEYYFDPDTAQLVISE

[2] = test system: Limosilactobacillus reuteri; assay: Effect on growth of Lactobacillus reuteri at 0.5 to 100 uM incubated for 24 hrs under anaerobic conditions by spectrophotometry; format: organism-based
Clostridioides difficile = assay: Effect on growth of Clostridium difficile at 0.5 to 100 uM incubated for 24 hrs under anaerobic conditions by spectrophotometry; format: functional, organism-based
[3] = Stability in human liver microsomes assessed as parent compound remaining level incubated for 15 mins; format: ADME, microsome; details: read-out: Stability
[4] = Stability in mouse liver microsomes assessed as parent compound remaining level incubated for 15 mins; format: ADME, microsome; details: read-out: Stability
Toxin B [5] = molecular target: T1, Toxin B; assay: Inhibition of Clostridium difficile toxin B […] assessed as reduction in caspase 3/7 activation pre-incubated for 1 hr before TcdB addition by luminescence based assay1; format: cell-based

SMILES | Activity (Bifidobacterium longum) | Activity (Bacteroides fragilis) | IC50 (Toxin B [1]) [µM] | Activity [2] | Activity (Clostridioides difficile) | remaining at 0.25 h [3] [%] | remaining at 0.25 h [4] [%] | IC50 (Toxin B [5]) [µM]
O=C(O)c1ccc(CN2C(=O)c3ccc(Cl)cc3NC(=O)[C@H]2c2ccccc2)cc1 | Non-Toxic | Non-Toxic | > 80 | Non-Toxic | inactive |  |  | 
N#Cc1cccc(C[C@@H]2C(=O)Nc3cc(Cl)ccc3C(=O)N2Cc2ccc(C(=O)O)cc2)c1 | Non-Toxic | Non-Toxic | 6.2 | Non-Toxic | inactive |  |  | 
O=C(Nc1cccnc1)c1ccc(CN2C(=O)c3ccc(Cl)cc3NC(=O)[C@H]2Cc2cccnc2)cc1 | Non-Toxic | Non-Toxic | > 80 | Non-Toxic | inactive |  |  | 
O=C(Nc1ccccc1)c1ccc(CN2C(=O)c3ccc(Cl)cc3NC(=O)[C@H]2Cc2cccnc2)cc1 | Non-Toxic | Non-Toxic | 22 | Non-Toxic | inactive |  |  | 
COC(=O)c1ccc(CN2C(=O)c3ccc(Cl)cc3NC(=O)[C@H]2Cc2cccnc2)cc1 | Non-Toxic | Non-Toxic | > 80 | Non-Toxic | inactive |  |  | 
CN1C(=O)[C@@H](Cc2cccnc2)N(Cc2ccc(C(=O)O)cc2)C(=O)c2ccc(Cl)cc21 | Non-Toxic | Non-Toxic | > 80 | Non-Toxic | inactive |  |  | 
O=C(O)c1ccc(CN2C(=O)c3ccc(Cl)cc3NC(=O)[C@H]2Cc2ccccn2)cc1 | Non-Toxic | Non-Toxic | 0.24 | Non-Toxic | inactive |  |  | 
Cc1cc(NC(=O)c2ccc(CN3C(=O)c4ccc(Cl)cc4NC(=O)[C@H]3Cc3cccnc3)cc2)no1 | Non-Toxic | Non-Toxic | 0.05 | Non-Toxic | inactive | 100 | 31 | 19
O=C(O)c1ccc(CN2C(=O)c3ccc(Cl)cc3NC(=O)C2Cc2cnccn2)cc1 (racemic) | Non-Toxic | Non-Toxic | 3.1 | Non-Toxic | inactive |  |  | 
Cc1ccc2c(c1)NC(=O)[C@@H](Cc1ccc(Cl)c(Cl)c1)N(Cc1ccc(C(=O)O)cc1)C2=O | Non-Toxic | Non-Toxic | 12 | Non-Toxic | inactive |  |  | 
Cc1ccc(C[C@@H]2C(=O)Nc3cc(Cl)ccc3C(=O)N2Cc2ccc(C(=O)O)cc2)cc1 | Non-Toxic | Non-Toxic | 32 | Non-Toxic | inactive |  |  | 
Cc1ccccc1C[C@@H]1C(=O)Nc2cc(Cl)ccc2C(=O)N1Cc1ccc(C(=O)O)cc1 | Non-Toxic | Non-Toxic | 3.9 | Non-Toxic | inactive |  |  | 
O=C(O)c1ccc(CN2C(=O)c3ccc(Cl)cc3NC(=O)[C@H]2Cc2ccncc2)cc1 | Non-Toxic | Non-Toxic | 18 | Non-Toxic | inactive |  |  | 
O=C(O)c1ccc(CN2C(=O)c3ccc(Cl)cc3NC(=O)[C@H]2Cc2ccc(O)cc2)cc1 | Non-Toxic | Non-Toxic | 2 | Non-Toxic | inactive |  |  | 
O=C(O)c1ccc(CN2C(=O)c3ccc(Cl)cc3NC(=O)[C@@H]2Cc2ccc(Cl)c(Cl)c2)cc1 | Non-Toxic | Non-Toxic | 2.1 | Non-Toxic | inactive |  |  | 
O=C(O)c1ccc(CN2C(=O)c3ccc(Cl)cc3NC(=O)[C@H]2Cc2nccs2)cc1 | Non-Toxic | Non-Toxic | 2.3 | Non-Toxic | inactive |  |  | 
O=C(O)c1ccc(CN2C(=O)c3cccc(Cl)c3NC(=O)[C@H]2Cc2cccnc2)cc1 | Non-Toxic | Non-Toxic | 69 | Non-Toxic | inactive |  |  | 
O=C(O)c1ccc(CN2C(=O)c3ccccc3NC(=O)[C@H]2Cc2ccc(Cl)c(Cl)c2)cc1 | Non-Toxic | Non-Toxic | 2.1 | Non-Toxic | inactive |  |  | 
O=C(O)c1ccc(CN2C(=O)c3ccc(Cl)cc3NC(=O)[C@H]2CC2CCCCC2)cc1 | Non-Toxic | Non-Toxic | 84 | Non-Toxic | inactive |  |  | 

SMILES | Activity (Bifidobacterium longum) | Activity (Bacteroides fragilis) | IC50 (Toxin B [1]) [µM] | Activity [2] | Activity (Clostridioides difficile) | remaining at 0.25 h [3] [%] | remaining at 0.25 h [4] [%] | IC50 (Toxin B [5]) [µM]
NC(=O)c1ccc(CN2C(=O)c3ccc(Cl)cc3NC(=O)[C@@H]2Cc2ccc(Cl)c(Cl)c2)cc1 | Non-Toxic | Non-Toxic | 16 | Non-Toxic | inactive |  |  | 
CC(C)C[C@@H]1C(=O)Nc2cc(Cl)ccc2C(=O)N1Cc1ccc(C(=O)O)cc1 | Non-Toxic | Non-Toxic | > 80 | Non-Toxic | inactive |  |  | 
O=C(O)c1ccc(CN2C(=O)c3ccc(Cl)cc3NC(=O)[C@@H]2Cc2ccccn2)cc1 | Non-Toxic | Non-Toxic | 0.5 | Non-Toxic | inactive |  |  | 
O=C(O)c1ccc(CN2C(=O)c3ccc(Cl)cc3NC(=O)[C@H]2Cc2cccc(Cl)c2)cc1 | Non-Toxic | Non-Toxic | 1.6 | Non-Toxic | inactive |  |  | 
O=C(Nc1ccncc1)c1ccc(CN2C(=O)c3ccc(Cl)cc3NC(=O)[C@H]2Cc2cccnc2)cc1 | Non-Toxic | Non-Toxic | > 80 | Non-Toxic | inactive |  |  | 
C[C@@H]1C(=O)Nc2cc(Cl)ccc2C(=O)N1Cc1ccc(C(=O)O)cc1 | Non-Toxic | Non-Toxic | 21 | Non-Toxic | inactive |  |  | 
COc1ccc2c(c1)NC(=O)[C@@H](Cc1cccnc1)N(Cc1ccc(C(=O)O)cc1)C2=O | Non-Toxic | Non-Toxic | 2.5 | Non-Toxic | inactive |  |  | 
O=C(O)c1ccc(CN2C(=O)c3ccc(F)cc3NC(=O)[C@H]2Cc2cccnc2)cc1 | Non-Toxic | Non-Toxic | 8.6 | Non-Toxic | inactive |  |  | 
O=C(Nc1ncccn1)c1ccc(CN2C(=O)c3ccc(Cl)cc3NC(=O)[C@H]2Cc2cccnc2)cc1 | Non-Toxic | Non-Toxic | 0.018 | Non-Toxic | inactive | 100 | 88 | 
O=C(O)c1ccc(CN2C(=O)c3ccc(Cl)cc3NC(=O)[C@H]2Cc2ccccc2)cc1 | Non-Toxic | Non-Toxic | 6.3 | Non-Toxic | inactive |  |  | 
Cc1cccc(C[C@@H]2C(=O)Nc3cc(Cl)ccc3C(=O)N2Cc2ccc(C(=O)O)cc2)c1 | Non-Toxic | Non-Toxic | 4.4 | Non-Toxic | inactive |  |  | 
O=C(O)c1ccc(CN2C(=O)c3ccc(Cl)cc3NC(=O)[C@H]2Cc2ccccc2Cl)cc1 | Non-Toxic | Non-Toxic | 2.3 | Non-Toxic | inactive |  |  | 
O=C(O)c1ccc(CN2C(=O)c3ccc(Cl)cc3NC(=O)[C@H]2Cc2ccccc2F)cc1 | Non-Toxic | Non-Toxic | 30 | Non-Toxic | inactive |  |  | 
O=C(O)c1ccc(CN2C(=O)c3ccccc3NC(=O)[C@H]2Cc2cccnc2)cc1 | Non-Toxic | Non-Toxic | 46 | Non-Toxic | inactive |  |  | 
O=C(O)c1ccc(CN2C(=O)c3ccc(Cl)cc3NC(=O)[C@H]2Cc2ccc(Cl)cc2)cc1 | Non-Toxic | Non-Toxic | 17 | Non-Toxic | inactive |  |  | 
O=C(O)c1ccc(CN2C(=O)c3ccc(Cl)cc3NC(=O)[C@H]2Cc2cccnc2)cc1 | Non-Toxic | Non-Toxic | 0.77 | Non-Toxic | inactive |  |  | 
O=C(O)c1ccc(CN2C(=O)c3ccc(Cl)cc3NC(=O)[C@@H]2Cc2ccc(O)cc2)cc1 | Non-Toxic | Non-Toxic | 16 | Non-Toxic | inactive |  |  | 
O=C(O)c1ccc(CN2C(=O)c3ccc(Cl)cc3NC(=O)[C@H]2CCc2ccccc2)cc1 | Non-Toxic | Non-Toxic | 23 | Non-Toxic | inactive |  |  | 
O=C(O)c1ccc(CN2C(=O)c3cc(Cl)ccc3NC(=O)[C@H]2Cc2cccnc2)cc1 | Non-Toxic | Non-Toxic | > 80 | Non-Toxic | inactive |  |  | 

— ChEMBL document CHEMBL4184209, “Identification and initial optimization of inhibitors of Clostridium difficile (C. difficile) toxin B (TcdB)” (Bioorg Med Chem Lett, 2018)
